This is an account of results in patent US12121525B2, “Methods for treating GI syndrome and graft versus host disease” (Sloan Kettering Institute for Cancer Research, priority 2007, dated 2024).

In data set [1] the test system is C57BL/6 hepatocytes. The class given is cell-based. Here is the method:
FIGS. 16A-16F. In vivo activated allogeneic CTLs require target hepatocyte ASMase for efficient killing ex vivo. Hepatocytes, isolated as described in Example 1, were coincubated with splenic T cells harvested from lethally-irradiated wild type C57BL/6 recipients 10-14 days following transplantation of LP BM+T cells. FIG. 16A: 2×10^6 GvH-activated CTLs were coincubated with 0.5×10^6 wild type C57BL/6 or B6.MRL.1pr (FasR^−/−) hepatocytes (left panel) in complete medium for 16 hr. […] Apoptosis was quantified following fixation by nuclear bisbenzimide staining. FIG. 16B: asmase^−/− hepatocytes are resistant to apoptosis induced by GvH-activated CTLs. CTL coincubation was performed as in FIG. 16A and apoptosis was quantified 16 hr thereafter. FIG. 16C: Representative images of asmase^+/+ (top left panel) and asmase^−/− (bottom left panel) C57BL/6 hepatocytes following 10 min coincubation in suspension with 2×10^6 GvH-activated T cells. Hepatocytes were fixed and stained with DAPI and Cy-3-labelled anti-ceramide mAb as described in Example 1. Arrows indicate ceramide-rich platform generation on the outer leaflet of the plasma membrane. […] FIG. 16D: Quantification of ceramide-rich platforms in asmase^+/+ and asmase^−/− hepatocytes following incubation with 2×10^6 GvH-activated CTLs. […] Apoptosis was quantified as in FIG. 16A. […] 0.5×10^6 wild type hepatocytes, preincubated with 50 μg/mL nystatin for 30 min and resuspended in RPMI containing 1% lipid-free FBS, were coincubated with 2×10^6 GvH-activated T cells and apoptosis was quantified as in FIG. 16A. […]
To assess whether ceramide-mediated raft clustering into membrane platforms is an essential component of cytolytic T cell (CTL)-induced apoptosis of hepatocytes, we blocked raft clustering pharmacologically and examined the impact on alloactivated CTL-induced hepatocyte apoptosis in vitro. […] Co-incubation induced increased hepatocyte apoptosis from a baseline of 4.7±0.7% to 33.8±1.9% by 16 hr, as detected by nuclear morphologic changes (FIG. 16A). […]

The subject of data set [2] is C57BL/6 hepatocytes. In kind it is cell-based. The conditions noted are these: 200 nM, CTL-treated asmase−/− hepatocytes. The protocol: Whereas Fas-mediated apoptotic death receptor activation requires generation of ceramide-rich platforms in some cell systems, CTL-induced platform generation was assessed in asmase^+/+ and asmase^−/− hepatocytes in the ex vivo model of GvHD. Alloactivated T cells induced rapid generation of ceramide-rich platforms on the surface of the target hepatocytes 10 min following co-incubation (FIG. 16C). Platform generation increased within one minute, peaked at 10 min, and persisted for over 60 min (FIG. 16D). Fas, required for apoptosis in this system, concentrated within the ceramide-rich platform as determined by confocal microscopy.
Platforms were detected as previously described. […]; Sigma-Aldrich) for 45 min at 4° C., washed twice in PBS containing 0.1% Triton X-100 and mounted in fluorescent mounting medium (Dako, Carpenteria CA). Fluorescence was detected using an Axiovert S-100 Zeiss fluorescence microscope equipped with a SPOT digital camera. The percentage of cells containing platforms, i.e. those in which the fluorescence condenses onto less than 15% of the cell surface, was determined by counting 150-250 cells per point. Alternately, platforms were identified using a mouse monoclonal anti-ceramide antibody MID 15B4 IgM (1:50 dilution, Alexis Biochemicals), mouse monoclonal anti-Fas CH-11 IgM (1:500 dilution, Upstate Biotechnology) or polyclonal rabbit anti-ASMase antibody 1598 (1:100 dilution) and detected using Cy3-conjugated anti-mouse or anti-rabbit IgM (1:500 dilution, Roche Molecular Biochemicals), respectively. Rabbit polyclonal anti-CD46 (1:1000 dilution, Santa Cruz Biotechnology, Santa Cruz CA) was used as a negative control. In some studies, confocal images were obtained using a Leica TCS SPZ upright confocal microscope. Alternatively, 0.5×10^6hepatocytes were stimulated for the indicated times with CTLs and platform formation was assessed as described.

For the next data set, the system named is splenic T cells. Description: Platform generation in T cells after AICD induction. The note with it: 500 nM; not shown.
The next data set concerns C57BL/6 splenocytes. The data set can be described thus: Platform generation on target splenocytes coincubated with MLR-primed CTLs. The conditions noted are these: 500 nM.

Regarding `CCCCCCCCCCCCC/C=C/[C@@H](O)[C@H](CO)NC(=O)CCCCCCCCCCCCCCC` [C16-ceramide], the “rescue of CTL-induced apoptosis in nystatin-treated hepatocytes” value with C57BL/6 hepatocytes [1] is “unable to overcome cholesterol chelation”. Moreover, in the data set on C57BL/6 hepatocytes [2], the “platform formation, % of cells” value is on record as 46.3±1.3%. The “platform generation in asmase−/− T cells stimulated to undergo AICD” value in the data set on splenic T cells is listed as “completely restored”. Also, the “platform generation on asmase−/− target splenocytes” value in the data set on C57BL/6 splenocytes is “restored”.
